Assay: method code SF, from DOI: 10.1016/0045-6535(88)90210-x

Structure (SMILES) | logP
Cc1ccc(N)c(C)c1 | 2.13
Nc1ccc([N+](=O)[O-])cc1[N+](=O)[O-] | 1.9
Oc1cc(Cl)c(Cl)c(Cl)c1Cl | 4.37
COc1cc(OC)c(Cl)cc1N | 1.45
OCC(Br)CBr (stereo not drawn) | 0.9
Cc1ccc(N)cc1Cl | 2.4
Oc1c(I)cc(I)cc1I | 4.5
NC(=O)Nc1cccc(O)c1 | 0.36
CC(O)CO (stereo not drawn) | -0.99
Cc1ccc(O)c(N)c1 | 1.11
CC(C)(C)c1cc(O)cc(C(C)(C)C)c1 | 4.64
CCc1ccccc1N | 2.04
OCCCl | 0.03
